Measurements from paper PMC8179002, “Inhibitors of thiol-mediated uptake” (Chemical Science, 2020).
Where two headings read alike, the source gives them in different places.

How the values were obtained:
[1] = test system: thiol-mediated uptake; assay: Inhibition of thiol-mediated uptake, reporter and protocol not stated; format: cell-based; settings: preliminary results; note 34
[2] = test system: HeLa Kyoto cells; settings: cited from earlier work
[3] = test system: cellular uptake of 1 in HeLa Kyoto cells; assay: cells; format: cell-based; settings: HeLa, removal, tinc 0.5 h with 1 (10 µM); for IC50: read-out: IC50, inhibition of cellular uptake of 1; for minimal effective concentration: read-out: MIC, inhibition of cellular uptake of 1
Procedure: (§1) With COCs 1 and 2 as cell-penetrating reporters, a fully automated, fluorescent microscopy image-based high-content high-throughput (HCHT)[19] inhibitor screening assay was developed. HeLa cells in multiwell plates are incubated with a reporter at constant and inhibitors at varying concentrations and incubation times. Hindered reporter uptake then causes decrease of fluorescence inside of cells (Fig. 3a). Automated data analysis[19] was established to extract average fluorescence intensity per cell and, at the same time, cell viability from propidium iodide negative nuclei count (Fig. 3 and S3–S6 ^†). Standard assay conditions consisted of pre-incubation of HeLa cells with inhibitors for different periods of time, followed by the removal of inhibitors and the addition of reporters, thus excluding possible interactions between the two in the extracellular environment. In alternative co-incubation conditions, inhibitors were not removed before the addition of reporters to allow for eventual interactions between the two.
4. High-Content High-Throughput (HCHT) Inhibitor Screening
4.1. General Procedure for HCHT Inhibitor Screening
4.1.1. Pre-Incubation of Inhibitors
HeLa Kyoto cells were seeded at 1.2 ×10^4 cells/well in FluoroBrite DMEM + 10% FBS on μ-Plate 96-well Black ibiTreat sterile and kept at 37 °C with 5% CO2 overnight. Next day, serial dilutions of the inhibitors in PBS (10x final concentration), reporter 1 or 2 (100 μM in PBS) and a solution of Hoechst 33342 (100 μg/mL) and PI (10 μg/mL) in PBS were prepared freshly in a 96-well V-bottom plate. Then, cells were washed with PBS ([…]) and the media was exchanged to FluoroBrite DMEM (4 x 150 μL/well) using a plate washer (Biotek EL406®), keeping always a final volume of 135 μL/well. The inhibitor solutions from the V-bottom plate were added to the cells (15 μL/well, 10x final concentration in PBS) using an electronic multichannel pipettes to reach a final volume of 150 μL/well. Cells were incubated for the time of interest (for details of each inhibitors, see Section 4.3 and 4.4) at 37 °C with 5%
CO2. After this, cells were washed again using the plate washer and reporter solution 1 or 2 from the V-bottom plate was added (15 μL/well) using an electronic multichannel pipettes to reach a final volume of 150 μL/well and a final concentration of 10 μM, except for the control wells, where only PBS was added (15 μL/well). After 30 min of incubation at 37 °C with 5% CO2, the plate was washed again using the plate washer. Then, the solution of Hoechst 33342 and PI from V-bottom plate was added (15 μL/well) using an electronic multichannel pipettes to reach a final volume of 150 μL/well. After 15 min of incubation at 37 °C with 5% CO2, the plate was washed one last time and the cells were kept in clean FluoroBrite DMEM. During imaging, samples were kept at 37 °C with 5% CO2 in the microscope.
4.1.2. Co-Incubation of Inhibitors and Reporters […]
serial dilutions of the inhibitors in PBS (10x final concentration), reporter 1 or 2 (110 μM in […]
freshly in a 96-well V-bottom plate. Then, cells were washed with the plate washer. The inhibitor solutions from the V-bottom plate were added to the cells (15 μL/well, 10x final concentration in PBS) using an electronic multichannel pipettes to reach a final volume of 150 μL/well. Cells were incubated for the time of interest (for details of each inhibitors, see Section 4.3 and 4.4) at 37 °C with 5% CO2. Reporter solution 1 or 2 from V-bottom plate was then added (15 μL/well) using an electronic multichannel pipettes to reach a final volume of 165 μL/well and a final concentration of 10 μM 30 min before the next washing process, except for the control wells, where only PBS was added (15 μL/well). The plate was washed again using the plate washer. The solution of Hoechst 33342 and PI from V-bottom plate was added (15 μL/well) using an electronic multichannel pipettes to reach a final volume of 150 μL/well. After […]

[4] = Relative cell viability in HCHT screening (propidium iodide negative nuclei count); format: cell-based; settings: human, HeLa, removal, tinc 0.5 h with 1 (10 µM), read-out: GI50, concentration causing 50% cell growth inhibition
Procedure: as §1
(§2) To be able to extract the fluorescent integrated intensity information (sum of the intensities of all the pixels included in the mask) from the green channel for live cell only, the image analysis pipeline contains several steps of cell filtering and selection:
(§3) 1) Firstly, PI is used to stain any remaining nuclei of dead cell. In the analysis pipeline, all the “dead” nuclei are detected based on their fluorescent intensity in the PI channel (Figure […]
(§4) Fig. S4 (A) PI positive nuclei mask (fluorescent intensity threshold of 1000). (B) Overlap image of dead nuclei mask and original all cell body mask. (C) Resulting cell mask after removing any cell marked by a dead nucleus, new mask is called “Live Cell”. Scale bar: 50 μm.
(§5) 2) Elimination of non-full cells from the border of the image is performed, to avoid inaccurate fluorescent integrated intensity quantification (fluorescent integrated intensity = sum of intensity of all the pixel of the object) (Figure S5).
(§6) (1 picture or pasted object on this page, not shown here)
(§7) 4.3. HCHT Inhibitor Screening with ETP as Reporter […]
(§8) Relative cell viability (RV) for each condition in the presence of inhibitors were calculated using the count value of living cells by dividing the count value of living cells with addition of reporter 1, Hoechst 33342 and PI, for each set of experiments. Duplicates were performed for each condition. The resulting dependence of the relative cell viability (RVrel) to the concentration of inhibitors (cinhibitor) was plotted and fitted with Equation (S2) to retrieve the concentration causing 50% cell growth inhibition (GI50) value and the Hill coefficient (n).
(§9) RVrel = 1 / (1 + (GI50 / cinhibitor)n) (S2)
(§10) Note: Reporter 1 were not toxic for 1 h at 10 μM.S2 Also in this study, the count value of living cells with addition of reporter 1, Hoechst 33342 and PI is always similar to that of living cells with only addition of Hoechst 33342 and PI.
as §8, with “with” for “in the presence of”, “2,” for “1,”
(§11) Note: Reporter 2 were not toxic for 24 h at 10 μM.S3 Also in this study, the count value of living cells with addition of reporter 2, Hoechst 33342 and PI is always similar to that of living cells with only addition of Hoechst 33342 and PI.
(§12) 4.4.1. Screening with Disulfides as Inhibitors
(§13) 4.4.1.1. Screening with ETP as Inhibitors
(§14) Fig. S35 Automatically analyzed HCHT data showing fluorescence intensity (filled symbols) and relative viability (empty symbols) of HeLa cells after pre-incubation with 3 for 1 h (blue […]

[5] = test system: HeLa Kyoto cells; assay: as above; format: cell-based; settings: HeLa, removal, tinc 0.5 h with 1 (10 µM), read-out: GI50, concentration causing 50% cell growth inhibition
Procedure: as §1, §2, §3, §4, §5, §6, §7, §8, §9, §10
as §8, with “with” for “in the presence of”, “2,” for “1,”
as §11, §12, §13, §14

[6] = HeLa Kyoto, 0.5 h, tpre 0.5 h with inhibitor
[7] = HeLa Kyoto, 1 h, tpre 1 h with inhibitor
[8] = HeLa Kyoto, 2 h, tpre 2 h with inhibitor
[9] = HeLa Kyoto, tpre 1 h with inhibitor
[10] = HeLa Kyoto, tpre 2 h with inhibitor
[11] = HeLa Kyoto, 4 h, tpre 4 h with inhibitor
[12] = HeLa Kyoto, tpre 4 h with inhibitor

SMILES | minimal effective concentration [3, 7] [µM] | minimal effective concentration [3, 8] [µM] | IC50 [3, 9] [µM] | IC50 [3, 10] [µM] | GI50 ([4]; tpre 1 h with inhibitor) [µM] | GI50 ([4]; tpre 2 h with inhibitor) [µM] | other results
O=c1c2ccccc2[se]n1-c1ccccc1 [ebselen] |  |  |  |  |  |  | Inhibition of thiol-mediated uptake, in words [1]: inhibits
O=C(NCCNC(=S)Nc1ccc(-c2c3ccc(=O)cc-3oc3cc(O)ccc23)c(C(=O)O)c1)c1ccc2c(c1)SSSSS2 [compound 2] |  |  |  |  |  |  | Toxicity of reporter ([2]; 24 h at 10 μM, ref S3): not toxic
CCN1C(=O)C2SSC1C(=O)N2CC(=O)NCCNC(=S)Nc1ccc(-c2c3ccc(=O)cc-3oc3cc(O)ccc23)c(C(=O)O)c1 (stereo not drawn) [compound 1] |  |  |  |  |  |  | Toxicity of reporter ([2]; 1 h at 10 μM, ref S2): not toxic
O=C(CN1C(=O)C2SSC1C(=O)N2CCOc1ccccc1)NCCS(=O)(=O)O (stereo not drawn) [compound 8] | 2 | 6 | > 100 | > 100 | > 100 | > 100 | IC50 [3, 6]: > 100 µM; minimal effective concentration [3, 6]: 10 µM; GI50 ([4]; tpre 0.5 h with inhibitor): > 100 µM
O=C(O)CCCCC1CCS[S+]1[O-] (stereo not drawn) [compound 27] | > 2000 | > 2000 | > 2000 | > 2000 | > 5000 | > 5000 | minimal effective concentration [3, 11]: > 2000 µM; IC50 [3, 12]: > 2000 µM; GI50 ([4]; tpre 4 h with inhibitor): 1800 ± 300 µM
O=C(O)C1CS[S+]([O-])C1 (stereo not drawn) [compound 23] | 1000 | 1000 | > 2000 | > 2000 | > 2000 | 1780 ± 120 | minimal effective concentration [3, 11]: 900 µM; IC50 [3, 12]: > 1000 µM; GI50 ([4]; tpre 4 h with inhibitor): 1470 ± 70 µM
COCCOCCOCCNC(=O)c1ccc2c(c1)SSSSS2 [compound 10] | 7 | 3.5 | 10.1 ± 0.1 | > 5 | ~10 | ~7 | IC50 [3, 6]: 10.4 ± 0.3 µM; minimal effective concentration [3, 6]: 6.5 µM; GI50 ([4]; tpre 0.5 h with inhibitor): ~18 µM
[O-][S+]1CC(O)C(O)CS1 (stereo not drawn) [compound 22] |  |  |  |  |  |  | MIC, inhibition of cellular uptake of 1 ([3]; tpre 1 h with inhibitor): 800 µM; IC50 ([3]; tpre 1 h with inhibitor): > 5000 µM; MIC, inhibition of cellular uptake of 1 ([3]; tpre 2 h with inhibitor): 600 µM; IC50 ([3]; tpre 2 h with inhibitor): > 2000 µM; MIC, inhibition of cellular uptake of 1 ([3]; tpre 4 h with inhibitor): 300 µM; IC50 ([3]; tpre 4 h with inhibitor): > 2000 µM; GI50 ([5]; tpre 1 h with inhibitor): 4400 ± 200 µM; GI50 ([5]; tpre 2 h with inhibitor): > 5000 µM; GI50 ([5]; tpre 4 h with inhibitor): > 2000 µM
